SMILES strings stand for the structures. Read-outs that look alike come from different tables or passages of the source.

One data set has as its target T1, 5-HT2C (Homo sapiens, UniProt P28335).
T1 construct: expressed in transfected cells; host or cells: HEK293T (ATCC; RRID:CVCL_0063), transient transfection
T1 sequence (P28335 33-458): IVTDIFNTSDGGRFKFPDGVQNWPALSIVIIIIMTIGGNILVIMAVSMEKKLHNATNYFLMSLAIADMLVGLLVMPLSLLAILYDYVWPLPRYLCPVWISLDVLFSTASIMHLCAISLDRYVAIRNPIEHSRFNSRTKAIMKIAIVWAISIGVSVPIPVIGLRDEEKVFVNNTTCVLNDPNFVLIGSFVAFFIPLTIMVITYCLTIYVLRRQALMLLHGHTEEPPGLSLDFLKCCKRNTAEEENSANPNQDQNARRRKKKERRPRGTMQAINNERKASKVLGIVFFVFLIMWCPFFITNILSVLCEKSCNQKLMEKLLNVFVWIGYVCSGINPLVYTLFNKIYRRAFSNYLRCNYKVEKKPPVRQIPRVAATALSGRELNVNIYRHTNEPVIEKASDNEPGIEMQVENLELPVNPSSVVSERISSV
The experiment in a line: cell-based. The following applies: for EC50: Gq dissociation BRET; for Emax: HEK-293T, read-out: Emax ± SEM, %5-HT response 5-HT2C.

The next data set deals with NET (Homo sapiens, UniProt P23975). Briefly: Release (superfusion) assay, NET mediated [3H]MPP+ release. The following applies: for Emax: read-out: Emax [95%-CI], NET mediated [3H]MPP+ release.
In a further data set the target is T2, OCT2 (Homo sapiens, UniProt O15244).
T2 sequence (O15244 1-555): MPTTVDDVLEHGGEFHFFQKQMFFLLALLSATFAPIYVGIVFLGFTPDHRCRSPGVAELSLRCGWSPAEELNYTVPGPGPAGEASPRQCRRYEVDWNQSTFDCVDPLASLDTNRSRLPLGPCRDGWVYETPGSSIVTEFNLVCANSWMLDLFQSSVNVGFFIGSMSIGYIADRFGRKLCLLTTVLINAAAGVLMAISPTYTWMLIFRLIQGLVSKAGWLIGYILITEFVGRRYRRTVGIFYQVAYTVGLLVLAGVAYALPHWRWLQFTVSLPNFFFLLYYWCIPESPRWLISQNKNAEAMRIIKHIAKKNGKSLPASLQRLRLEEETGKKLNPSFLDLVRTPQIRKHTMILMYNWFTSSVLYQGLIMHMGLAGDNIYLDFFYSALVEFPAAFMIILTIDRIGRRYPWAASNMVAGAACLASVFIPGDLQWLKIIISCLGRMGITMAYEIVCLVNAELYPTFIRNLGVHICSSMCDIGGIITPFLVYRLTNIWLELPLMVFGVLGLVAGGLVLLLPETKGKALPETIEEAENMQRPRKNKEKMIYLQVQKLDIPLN
The experiment in a line: Uptake inhibition assay, [3H]MPP+ uptake in HEK293 cells.

The target in data set [1] is T3, DAT (Homo sapiens, UniProt Q01959). The following applies: uptake inhibition; DAT/SERT ratio = 1/DAT / 1/SERT.
Another data set has as its target T4, 5-HT2B (Homo sapiens, UniProt P41595).
T4 construct: expressed in transfected cells; host or cells: HEK293T (ATCC; RRID:CVCL_0063), transient transfection
The experiment in a line: Gq dissociation BRET assay in HEK293T cells. The following applies: for EC50: Gq dissociation BRET, read-out: EC50 5-HT2B; for Emax: HEK-293T, read-out: Emax ± SEM, %5-HT response 5-HT2B. The class given is cell-based.

The target in data set [2] is T3, DAT. Briefly: cell-based. The settings on record: read-out: Emax [95%-CI], DAT mediated [3H]MPP+ release.
Data set [3] concerns the target T5, SERT (Homo sapiens, UniProt P31645). Briefly: Release (superfusion) assay, SERT mediated [3H]5-HT efflux. The settings on record: for Emax: read-out: Emax [95%-CI], SERT mediated [3H]5-HT efflux.
In another data set the target is T6, 5-HT2A (Homo sapiens, UniProt P28223).
T6 construct: expressed in transfected cells; host or cells: HEK293T (ATCC; RRID:CVCL_0063), transient transfection
The experiment in a line: Gq dissociation BRET assay in HEK293T cells. It counts as cell-based. The following applies: for Emax ± SEM, %5-HT response 5-HT2A / EC50: Gq dissociation BRET; for Emax ± SEM, %5-HT response 5-HT2A: relative to 5-HT.

Data set [4] in a line: Metabolic stability, substrate depletion in pooled human liver microsomes. The settings on record: for CLint scaled at 0.5 μM / half-life at 0.5 μM / microsomal CLint at 0.5 μM: human, pooled human liver microsomes; for clearance classification: pHLM.
In data set [5] the target is T3, DAT. The following applies: for DAT/SERT ratio (EC50): efflux assays.
In the next data set the test system is male C57BL/6J mice. The experiment in a line: Head-twitch response (HTR). The class given is in vivo. The settings on record: IP, 30 min, doses based on the salt form. As for the experimental part:
Male Swiss CD-1 mice (Janvier, Le Genest, France), weighing 30–35 g and aged 6–8 weeks, were used for HLA, thigmotaxis, CPP, and core body temperature experiments. Animals were housed under temperature-controlled conditions (22 ± 1 °C) with a 12 h light/dark cycle and had free access to food and water (standard laboratory diet, Panlab SL, Barcelona, Spain). Doses for HLA, thigmotaxis, CPP, and core body temperature experiments were calculated based on the free base form of each compound. For HTR experiments, male C57BL/6J mice (6–8 weeks old) were obtained from Jackson Laboratories (Bar Harbor, ME, USA) and housed up to four per cage with a reversed light-cycle (lights on at 1900 h, off at 0700 h). Food and water were provided ad libitum, except during behavioral testing. Testing was conducted between 1000 and 1830 h. Doses for HTR experiments were calculated based on the respective salt forms of the compounds.
The HTR was assessed using a head-mounted magnet and a magnetometer detection coil. Mice were anesthetized, a small incision was made in the scalp, and a small neodymium magnet was attached to the dorsal surface of the cranium by using dental cement. Following a two week recovery period, HTR experiments were carried out in a well-lit room with at least 7 days between sessions to avoid carryover effects. Mice (N = 4–7/group) received intraperitoneal (IP) injections of vehicle (saline) or test drug (5 mL/kg injection volume), and then activity was recorded in a glass cylinder surrounded by a magnetometer coil for 30 min. Doses for HTR experiments were calculated based on the respective salt forms of the compounds. Coil voltage was low-pass filtered (1 kHz cutoff frequency), amplified, digitized (20 kHz sampling rate, 16-bit ADC resolution), and saved to disk using a Powerlab 8/35 data acquisition system with LabChart software (ver. 8.1 ADInstruments, Colorado Springs, CO, USA). To detect head twitches, events in the recordings were transformed to scalograms, deep features were extracted using the deep convolutional neural network ResNet-50, and then the images were classified using a support vector machine (SVM). Head twitch counts were analyzed using one-way ANOVA. Posthoc comparisons were made using Dunnett’s test.

Data set [6] addresses T5, SERT. Briefly: Uptake inhibition assay, [3H]5-HT uptake in HEK293 cells. It counts as cell-based. More on the design: expressed in transfected cells.

NET, sequence (P23975 whole entry, the tested form may be a part): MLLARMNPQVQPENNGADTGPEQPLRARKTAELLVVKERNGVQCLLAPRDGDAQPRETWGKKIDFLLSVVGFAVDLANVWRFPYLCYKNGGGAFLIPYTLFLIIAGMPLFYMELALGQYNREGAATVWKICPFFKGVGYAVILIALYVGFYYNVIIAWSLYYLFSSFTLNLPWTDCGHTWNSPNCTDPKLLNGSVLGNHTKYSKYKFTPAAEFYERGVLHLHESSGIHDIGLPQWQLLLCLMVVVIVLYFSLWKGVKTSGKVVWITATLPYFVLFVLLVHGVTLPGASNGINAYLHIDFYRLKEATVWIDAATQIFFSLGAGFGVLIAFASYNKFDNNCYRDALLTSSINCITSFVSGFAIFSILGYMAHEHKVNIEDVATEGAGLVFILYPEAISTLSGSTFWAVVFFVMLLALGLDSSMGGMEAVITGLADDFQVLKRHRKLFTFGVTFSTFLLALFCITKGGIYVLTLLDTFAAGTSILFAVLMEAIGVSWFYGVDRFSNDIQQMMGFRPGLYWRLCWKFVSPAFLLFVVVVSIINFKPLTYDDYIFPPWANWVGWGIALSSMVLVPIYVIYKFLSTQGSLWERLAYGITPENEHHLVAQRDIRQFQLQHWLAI
T5 sequence (P31645 whole entry, the tested form may be a part): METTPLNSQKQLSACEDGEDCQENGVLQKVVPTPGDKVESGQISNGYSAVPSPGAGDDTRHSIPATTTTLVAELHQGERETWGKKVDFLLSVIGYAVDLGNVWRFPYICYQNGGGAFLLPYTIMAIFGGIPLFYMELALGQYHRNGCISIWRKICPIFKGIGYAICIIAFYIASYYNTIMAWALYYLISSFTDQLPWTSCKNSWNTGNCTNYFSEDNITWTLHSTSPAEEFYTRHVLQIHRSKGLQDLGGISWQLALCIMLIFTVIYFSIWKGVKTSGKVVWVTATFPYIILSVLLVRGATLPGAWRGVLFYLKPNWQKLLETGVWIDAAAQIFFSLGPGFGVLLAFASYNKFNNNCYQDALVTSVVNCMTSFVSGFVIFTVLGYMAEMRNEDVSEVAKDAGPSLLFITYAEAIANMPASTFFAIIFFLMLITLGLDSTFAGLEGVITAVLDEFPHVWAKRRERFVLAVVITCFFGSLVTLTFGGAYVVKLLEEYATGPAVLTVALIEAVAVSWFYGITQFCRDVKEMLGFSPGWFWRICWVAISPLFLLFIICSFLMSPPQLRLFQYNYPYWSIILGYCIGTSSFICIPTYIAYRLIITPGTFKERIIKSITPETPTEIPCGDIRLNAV
T4 sequence (P41595 whole entry): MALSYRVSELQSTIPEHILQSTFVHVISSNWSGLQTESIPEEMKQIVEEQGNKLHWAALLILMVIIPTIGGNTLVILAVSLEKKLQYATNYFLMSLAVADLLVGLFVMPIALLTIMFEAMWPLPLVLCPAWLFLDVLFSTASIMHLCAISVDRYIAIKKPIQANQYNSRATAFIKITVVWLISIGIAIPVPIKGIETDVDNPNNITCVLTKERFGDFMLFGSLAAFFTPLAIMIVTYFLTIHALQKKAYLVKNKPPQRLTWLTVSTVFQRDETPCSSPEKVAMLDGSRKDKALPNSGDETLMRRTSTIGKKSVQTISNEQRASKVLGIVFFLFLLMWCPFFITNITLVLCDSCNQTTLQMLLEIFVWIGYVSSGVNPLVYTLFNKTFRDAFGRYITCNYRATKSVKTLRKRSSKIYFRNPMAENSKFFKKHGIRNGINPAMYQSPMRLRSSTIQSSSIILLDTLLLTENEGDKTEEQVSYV
T3 sequence (Q01959 whole entry): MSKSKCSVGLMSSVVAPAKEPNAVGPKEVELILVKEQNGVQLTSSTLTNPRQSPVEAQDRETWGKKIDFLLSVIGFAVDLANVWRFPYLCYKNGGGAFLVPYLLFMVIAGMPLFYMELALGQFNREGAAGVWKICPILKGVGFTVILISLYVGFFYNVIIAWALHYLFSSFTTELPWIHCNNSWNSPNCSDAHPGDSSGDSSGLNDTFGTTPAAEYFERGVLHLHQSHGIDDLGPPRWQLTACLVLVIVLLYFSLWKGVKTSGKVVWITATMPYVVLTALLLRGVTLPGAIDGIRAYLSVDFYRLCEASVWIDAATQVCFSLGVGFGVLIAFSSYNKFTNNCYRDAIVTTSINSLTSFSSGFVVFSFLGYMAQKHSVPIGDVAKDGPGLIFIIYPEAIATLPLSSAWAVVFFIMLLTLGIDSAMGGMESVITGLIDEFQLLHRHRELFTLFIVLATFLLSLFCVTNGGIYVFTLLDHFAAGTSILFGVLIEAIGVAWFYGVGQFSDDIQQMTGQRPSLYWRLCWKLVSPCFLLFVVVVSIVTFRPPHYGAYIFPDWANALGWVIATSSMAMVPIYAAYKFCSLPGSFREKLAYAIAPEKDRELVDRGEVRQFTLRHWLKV
T6 sequence (P28223 whole entry): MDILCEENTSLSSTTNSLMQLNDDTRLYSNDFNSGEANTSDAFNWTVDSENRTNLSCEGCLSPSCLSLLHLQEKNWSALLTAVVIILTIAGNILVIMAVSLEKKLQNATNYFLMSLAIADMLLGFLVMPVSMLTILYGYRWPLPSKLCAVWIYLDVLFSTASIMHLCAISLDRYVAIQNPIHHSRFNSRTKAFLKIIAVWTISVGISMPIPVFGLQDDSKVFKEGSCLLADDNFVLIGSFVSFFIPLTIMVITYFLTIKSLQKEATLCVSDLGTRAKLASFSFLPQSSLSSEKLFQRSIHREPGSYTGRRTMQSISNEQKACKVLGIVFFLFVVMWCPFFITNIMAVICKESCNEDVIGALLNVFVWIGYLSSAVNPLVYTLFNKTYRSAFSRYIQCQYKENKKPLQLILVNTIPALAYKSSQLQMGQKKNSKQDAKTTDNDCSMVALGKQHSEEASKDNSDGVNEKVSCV

Regarding `CC(N)Cc1ccc2c(c1)SCO2` (stereo not drawn) [SDA, 1-(1,3-benzoxathiol-5-yl)propan-2-amine], at 5-HT2C, the EC50 stood at 48.1 nM and the maximal effect (Emax) came to 92.9 ± 4.9%. Also, at NET, the EC50 was 150 nM, the “type of releaser at NET” value was “full releasers” and the Emax was 99.6%. At OCT2, this compound registered an IC50 of 5700 ± 600 nM. The “DAT/SERT ratio (IC50)” value at DAT [1] stood at 2.42. Besides, on 5-HT2B, the EC50 was found to be 41.5 nM and the Emax is 88.2 ± 3.7%. For the same compound, the Emax at DAT [2] came to 55.4%. Further, on SERT [3], the EC50 was 270 nM, the “type of releaser at SERT” value is reported as “partial releasers” and the Emax was found to be 70.5%. Also, at 5-HT2A, the “Emax ± SEM, %5-HT response 5-HT2A” value came to 92.4 ± 2.0%. Further, the EC50 on 5-HT2A (read-out: EC50 5-HT2A) stood at 340 nM. The EC50 at 5-HT2A (read-out: pEC50 ± SEM 5-HT2A (converted)) was 302 nM. Also, in data set [4], the CLint scaled at 0.5 μM stood at 9.7 mL/min/kg, the half-life at 0.5 μM was 1.02 h, the microsomal CLint at 0.5 μM amounted to 11.4 µL/min/mg and the clearance classification result was “low clearance compounds”. Further, at DAT [5], the “type of releaser at DAT” value was “partial releasers” and the “DAT/SERT ratio (EC50)” value is listed as 0.66. Besides, the HTR counts result in the data set on male C57BL/6J mice is “dose-related increase in HTR counts peaking at 3 mg/kg”. At SERT [6], this compound displayed an IC50 of 3090 ± 680 nM.
Consider `CNC(C)Cc1ccc2c(c1)SCO2` (stereo not drawn) [SDMA, 1-(1,3-benzoxathiol-5-yl)-N-methylpropan-2-amine], for which, at 5-HT2C, the EC50 turned out to be 656 nM and the maximal effect (Emax) is 79 ± 5.3%. In addition, at NET, the EC50 is 360 nM, the “type of releaser at NET” value was “full releasers” and the Emax stood at 104%. Also, 4130 ± 600 nM corresponded to half-maximal inhibition against OCT2 (IC50). For the same compound, the “DAT/SERT ratio (IC50)” value at DAT [1] amounted to 2.15. Also, on 5-HT2B, the EC50 was determined as 357 nM and the Emax is 70 ± 3.4%. Besides, on DAT [2], the Emax came out at 35.4%. In addition, on SERT [3], the EC50 came to 180 nM, the “type of releaser at SERT” value is “partial releasers” and the Emax was 71.5%. In addition, at 5-HT2A, the “Emax ± SEM, %5-HT response 5-HT2A” value stood at 68.2 ± 1.8%. Further, the EC50 at 5-HT2A (read-out: EC50 5-HT2A) was 1400 nM. Besides, the Emax at 5-HT2A (HEK-293T, read-out: Emax ± SEM, %5-HT response 5-HT2A, Gq dissociation BRET, relative to 5-HT) is less than 70%. In addition, in [4], the CLint scaled at 0.5 μM came to 8.4 mL/min/kg, the half-life at 0.5 μM amounted to 1.18 h, the microsomal CLint at 0.5 μM came to 9.8 µL/min/mg and the clearance classification result is listed as “low clearance compounds”. Moreover, at DAT [5], the “type of releaser at DAT” value was “partial releasers” and the “DAT/SERT ratio (EC50)” value is recorded as 0.37. Also, the HTR counts result in the data set with male C57BL/6J mice was “Neither MDMA nor SDMA induced an appreciable increase in HTR counts”. The compound further gave an IC50 at SERT [6] of 4000 ± 870 nM.

Source of the values: PMC12715756 (ACS Chemical Neuroscience, 2025).
